Assay results: PMC4052943 (BioMed Research International, 2014)
Where two headings read alike, the source gives them in different places.

How the values were obtained:
[1] = test system: Salmonella typhimurium TA100; test: Ames antimutagenicity assay (preincubation);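 note: compound and mutagen preincubated together 30 min at 37°C before bacteria added, then plates incubated 48 h at 37°C, inhibition relative to mutagen-alone revertants after subtracting the negative control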
Protocol: (§1) In the preincubation experiment, test compounds and mutagen, each having a volume of 0.1 mL of varying concentrations, were preincubated at 37°C for 30 min and then 0.1 mL of 1 × 10^7 CFU/mL density of the bacterial culture was added, followed by the addition of 2.5 mL of top agar at 45°C (containing 0.5% NaCl and 0.6% agar) supplemented with 0.5 mM histidine-biotin. […] The combined solutions were vortexed and poured onto minimal glucose plates (40% glucose solution and Vogel Bonner medium). The plates were incubated at 37°C for 48 h and the numbers of histidine-independent revertants colonies were scored.
(§2) Survival of the bacteria was routinely monitored for each experiment. Parallel controls were run with compounds alone at all concentrations to test the possible toxicity. The concentrations of the test samples for investigating the antimutagenicity were 50, 100, 200, and 500 μM. […] All the test samples and mutagens were dissolved in DMSO (final conc., 0.01%). […] Plates were set up in triplicate for each concentration and the entire experiment was repeated three times. Inhibition of mutagenicity was expressed as percentage decrease of reverse mutation and calculated as (1) Percent inhibition=[(a−b)/(a−c)]×100, where a = number of histidine revertants induced by mutagen, b = number of histidine revertants induced by mutagen in the presence of test compound, and c = number of revertants induced in negative control.

[2] = test system: Salmonella typhimurium TA97a; conditions: TA 97a
Protocol: as §1, §2

[3] = test system: Salmonella typhimurium TA102
Protocol: as §1, §2

[4] = test system: Salmonella typhimurium strains TA97a, TA98, TA100, and TA102; test: Ames test, statements over all tester strains
Protocol: as §1, §2

## O=C1O[C@H]2[C@@H]3OC(=O)c4cc(O)c(O)c(O)c4-c4c(O)c(O)c5oc(=O)c6c(c(O)c(O)c7oc(=O)c4c5c76)-c4c(cc(O)c(O)c4O)C(=O)OC[C@H]3OC(O)[C@@H]2OC(=O)c2cc(O)c(O)c(O)c2-c2c1cc(O)c(O)c2O (mixture of isomers) [Punicalagin]
[1]; TA 100, 50 μM + 2AF, S9
  Number of His+ revertants colonies/plate: 426.7 ± 28.3 colonies/plate
[1]; TA 100, 50 μM + BP, S9
  Number of His+ revertants colonies/plate: 530.3 ± 26.4 colonies/plate
[1]; TA 100, 50 μM + MMS, no S9
  Number of His+ revertants colonies/plate: 856.3 ± 13.1 colonies/plate
[1]; TA 100, 50 μM + NaN3, no S9
  Number of His+ revertants colonies/plate: 342.0 ± 4.7 colonies/plate
[1]; TA 100, 100 μM + 2AF, S9
  Number of His+ revertants colonies/plate: 358.0 ± 12.2 colonies/plate
[1]; TA 100, 100 μM + BP, S9
  Number of His+ revertants colonies/plate: 442.7 ± 31.4 colonies/plate
[1]; TA 100, 100 μM + MMS, no S9
  Number of His+ revertants colonies/plate: 722.0 ± 15.0 colonies/plate
[1]; TA 100, 100 μM + NaN3, no S9
  Number of His+ revertants colonies/plate: 301.7 ± 7.8 colonies/plate
[1]; TA 100, 250 μM + BP, S9
  Number of His+ revertants colonies/plate: 366.0 ± 20.2 colonies/plate
[1]; TA 100, 250 μM + MMS, no S9
  Number of His+ revertants colonies/plate: 601.3 ± 12.3 colonies/plate
[1]; TA 100, 250 μM + NaN3, no S9
  Number of His+ revertants colonies/plate: 254.3 ± 10.8 colonies/plate
[1]; TA 100, 500 μM + 2AF, S9
  Number of His+ revertants colonies/plate: 245.0 ± 9.6 colonies/plate
[1]; TA 100, 500 μM + BP, S9
  Number of His+ revertants colonies/plate: 270.7 ± 15.6 colonies/plate
[1]; TA 100, 500 μM + MMS, no S9
  Number of His+ revertants colonies/plate: 451.7 ± 15.6 colonies/plate
[1]; TA 100, 500 μM + NaN3, no S9
  Number of His+ revertants colonies/plate: 232.3 ± 9.4 colonies/plate
[2]; 50 μM alone (negative control), 2AF tables
  Number of His+ revertants colonies/plate: 132.3 ± 8.8 colonies/plate
[2]; 50 μM alone (negative control), BP tables
  Number of His+ revertants colonies/plate: 132.3 ± 8.8 colonies/plate
[2]; 50 μM alone (negative control), MMS tables
  Number of His+ revertants colonies/plate: 141.3 ± 5.2 colonies/plate
[2]; 50 μM alone (negative control), NaN3 tables
  Number of His+ revertants colonies/plate: 141.3 ± 5.2 colonies/plate
[2]; 100 μM alone (negative control), 2AF tables
  Number of His+ revertants colonies/plate: 158.0 ± 7.4 colonies/plate
[2]; 100 μM alone (negative control), BP tables
  Number of His+ revertants colonies/plate: 158.0 ± 7.4 colonies/plate
[2]; 100 μM alone (negative control), MMS tables
  Number of His+ revertants colonies/plate: 153.7 ± 9.2 colonies/plate
[2]; 100 μM alone (negative control), NaN3 tables
  Number of His+ revertants colonies/plate: 153.7 ± 9.2 colonies/plate
[2]; 250 μM alone (negative control), 2AF tables
  Number of His+ revertants colonies/plate: 165.7 ± 10.9 colonies/plate
[2]; 250 μM alone (negative control), BP tables
  Number of His+ revertants colonies/plate: 165.7 ± 10.9 colonies/plate
[2]; 250 μM alone (negative control), MMS tables
  Number of His+ revertants colonies/plate: 158.3 ± 7.1 colonies/plate
[2]; 250 μM alone (negative control), NaN3 tables
  Number of His+ revertants colonies/plate: 158.3 ± 7.1 colonies/plate
[2]; 500 μM alone (negative control), 2AF tables
  Number of His+ revertants colonies/plate: 188.0 ± 9.5 colonies/plate
[2]; 500 μM alone (negative control), BP tables
  Number of His+ revertants colonies/plate: 188.0 ± 9.5 colonies/plate
[2]; 500 μM alone (negative control), MMS tables
  Number of His+ revertants colonies/plate: 174.0 ± 6.4 colonies/plate
[2]; 500 μM alone (negative control), NaN3 tables
  Number of His+ revertants colonies/plate: 174.0 ± 6.4 colonies/plate
[3]; Salmonella typhimurium
  Number of His+ revertants colonies/plate: 356.0 ± 10.4 colonies/plate
[3]; TA 102, 50 μM alone (negative control), 2AF tables
  Number of His+ revertants colonies/plate: 320.0 ± 21.9 colonies/plate
[3]; TA 102, 50 μM alone (negative control), BP tables
  Number of His+ revertants colonies/plate: 320.0±21.9 colonies/plate
[3]; TA 102, 50 μM alone (negative control), MMS tables
  Number of His+ revertants colonies/plate: 292.0 ± 7.7 colonies/plate
[3]; TA 102, 50 μM alone (negative control), NaN3 tables
  Number of His+ revertants colonies/plate: 306.7 ± 13.3 colonies/plate
[3]; TA 102, 100 μM alone (negative control), 2AF tables
  Number of His+ revertants colonies/plate: 341.0 ± 18.3 colonies/plate
[3]; TA 102, 100 μM alone (negative control), BP tables
  Number of His+ revertants colonies/plate: 341.0 ± 18.3 colonies/plate
[3]; TA 102, 100 μM alone (negative control), MMS tables
  Number of His+ revertants colonies/plate: 278.0 ± 12.8 colonies/plate
[3]; TA 102, 100 μM alone (negative control), NaN3 tables
  Number of His+ revertants colonies/plate: 275.3 ± 22.1 colonies/plate
[3]; TA 102, 250 μM alone (negative control), BP tables
  Number of His+ revertants colonies/plate: 356.0 ± 10.4 colonies/plate
[3]; TA 102, 250 μM alone (negative control), MMS tables
  Number of His+ revertants colonies/plate: 255.0 ± 13.2 colonies/plate
[3]; TA 102, 250 μM alone (negative control), NaN3 tables
  Number of His+ revertants colonies/plate: 250.0 ± 22.9 colonies/plate
[3]; TA 102, 500 μM alone (negative control), 2AF tables
  Number of His+ revertants colonies/plate: 358.0 ± 19.9 colonies/plate
[3]; TA 102, 500 μM alone (negative control), BP tables
  Number of His+ revertants colonies/plate: 358.0 ± 19.9 colonies/plate
[3]; TA 102, 500 μM alone (negative control), MMS tables
  Number of His+ revertants colonies/plate: 254.0 ± 14.3 colonies/plate
[3]; TA 102, 500 μM alone (negative control), NaN3 tables
  Number of His+ revertants colonies/plate: 231.7 ± 24.8 colonies/plate
[4]; 50–500 μM, absence of S9
  toxicity to Salmonella typhimurium strains: No toxicity
[4]; Salmonella enterica, TYPHIMURIUM, read-out: inhibition of 2AF- and BP-induced mutagenicity (range over strains)
  inhibition at 500 µM: 76.7 to 85%
[4]; TA97a, TA98, TA100, TA102, with or without S9, plate incorporation assay
  mutagenic activity: No mutagenic activity
[4]; against sodium azide, MMS, BP, 2AF, 50–500 μM
  maximum inhibition of mutagenicity: up to 90%
